The values below come from patent publication US20130053365A1, “DIHYDROPYRIDOPHTHALAZINONE INHIBITORS OF POLY(ADP-RIBOSE)POLYMERASE (PARP)” (BioMarin Pharmaceutical, Inc., priority 2011, published 2013).

Test [1] concerns the target T1, PARP-1 (Homo sapiens, UniProt P09874). The conditions noted are these: literature value, Farmer et al., Nature 2005; read-out: Ki (PARP-1 inhibitor); cited from earlier work.
Target sequence in this assay (P09874 whole entry, species assumed): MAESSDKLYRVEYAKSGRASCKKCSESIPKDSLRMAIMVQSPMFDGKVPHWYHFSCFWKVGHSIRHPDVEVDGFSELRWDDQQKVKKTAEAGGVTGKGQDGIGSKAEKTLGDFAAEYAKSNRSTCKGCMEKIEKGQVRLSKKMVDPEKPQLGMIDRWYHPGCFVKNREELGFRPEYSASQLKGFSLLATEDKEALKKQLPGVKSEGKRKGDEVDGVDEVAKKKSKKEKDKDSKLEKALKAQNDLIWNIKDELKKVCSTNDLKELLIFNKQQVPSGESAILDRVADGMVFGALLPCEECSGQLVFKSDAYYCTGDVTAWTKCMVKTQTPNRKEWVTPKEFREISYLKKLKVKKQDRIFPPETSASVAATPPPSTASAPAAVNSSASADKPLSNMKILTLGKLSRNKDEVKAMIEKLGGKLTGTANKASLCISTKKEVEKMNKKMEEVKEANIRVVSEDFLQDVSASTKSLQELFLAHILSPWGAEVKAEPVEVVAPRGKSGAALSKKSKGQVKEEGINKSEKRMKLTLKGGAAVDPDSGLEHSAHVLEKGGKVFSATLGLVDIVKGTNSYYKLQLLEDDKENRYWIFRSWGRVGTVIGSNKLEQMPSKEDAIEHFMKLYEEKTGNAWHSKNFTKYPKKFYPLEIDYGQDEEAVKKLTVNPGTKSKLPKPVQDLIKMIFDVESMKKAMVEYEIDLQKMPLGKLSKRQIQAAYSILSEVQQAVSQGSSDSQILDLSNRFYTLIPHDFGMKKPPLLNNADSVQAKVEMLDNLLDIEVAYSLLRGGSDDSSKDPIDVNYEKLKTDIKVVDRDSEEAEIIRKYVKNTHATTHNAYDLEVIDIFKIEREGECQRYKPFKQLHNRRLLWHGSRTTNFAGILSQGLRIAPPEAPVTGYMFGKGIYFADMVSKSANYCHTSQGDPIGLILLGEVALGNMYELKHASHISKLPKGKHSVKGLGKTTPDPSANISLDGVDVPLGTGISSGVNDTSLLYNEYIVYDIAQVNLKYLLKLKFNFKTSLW
The subject of test [2] is BRCA2-deficient cell line V-C8. To be noted: BRCA2-deficient V-C8 compared with BRCA2 wild type control; cited from earlier work.
For test [3], the target named is T1, PARP-1. Description: Universal Chemiluminescent PARP Assay (Trevigen kit), inhibition of human PARP 1 enzyme. Type of test: biochemical. Also on record: purchased Trevigen 4676-096-K. To be noted: recombinant human PARP 1 enzyme, read-out: PARP-inhibitory activity. On the procedure: Inhibitory effects of test compounds against human PARP 1 enzyme are assessed using Trevigen's Universal Chemiluminescent PARP Assay Kit (Trevigen CAT #4676-096-K) following the manufacturer's recommended protocol.
Immediately prior to performing the assay, the following reagents are prepared: A) 20× PARP Assay Buffer is diluted to 1× with dH2O; B) 10× PARP Cocktail, which contains a mixture of NAD and biotinylated NAD, is diluted by the addition of 10× Activated DNA and 1× PARP Assay Buffer. Both the PARP Cocktail and Activated DNA are 1× after the dilution; C) all test compounds are initially dissolved in DMSO, and subsequently serial diluted with 1× PARP Assay Buffer; D) recombinant human PARP 1 enzyme is diluted with 1× PARP Assay Buffer to generate 0.5 unit/15 μL; E) 10× Strep-Diluent is diluted to 1× with 1× PBS/0.1% Triton X-100; F) Just before use, Strep-HRP is diluted 500-fold with 1× Strep-Diluent.
The chemiluminescent assays for PARP activity is performed in white 96-well plates that are pre-coated with histones. […]
The reactions are allowed to proceed for 1 hour at room temperature. […] The light output is immediately determined in a plate reader (EnVision, by Perkin Elmer) set up for measuring chemiluminescence.
The % enzyme activity for each compound is then calculated using the following equation: […]
Target sequence in this assay (P09874 whole entry): as the sequence (P09874 whole entry, species assumed) above

The test system of a further test is CAPAN-1 cells. The conditions noted are these: CAPAN-1 cells in DMEM with FCS (20% v/v), glutamine and antibiotics; cited from earlier work.

“And” between values parts separate entries of the source, which are not always exact repeats. Equal entries are not always repeated.

With `Cc1nc2c(O)cccc2c(=O)[nH]1` [NU1025], the inhibitory constant (Ki) at PARP-1 [1] is 0.05 µM. Further, the “sensitivity in clonogenic survival assay” value in test [2] is given as “exhibited sensitivity”.
Take `Cn1ncnc1C1c2n[nH]c(=O)c3cc(F)cc(c23)NCC1c1ccc(F)cc1` (stereo not drawn) [Compound 40, 5-fluoro-9-(4-fluorophenyl)-10-(1-methyl-1H-1,2,4-triazol-5-yl)-7,8,9,10-tetrahydroazepino[4,3,2-de]phthalazin-3(2H)-one]: the IC50 on PARP-1 [3] was < 0.8 µM and 0.25 to 0.3 µM.
For the molecule `CN(C)Cc1ccc(-c2nc3cccc4c3n2CCNC4=O)cc1` [AG14361], the Ki at PARP-1 [1] was 0.005 µM. Further, the “sensitivity in clonogenic survival assay” value in test [2] is recorded as “exhibited sensitivity”.
As to `O=C(c1cc(Cc2n[nH]c(=O)c3ccccc23)ccc1F)N1CCN(C(=O)C2CC2)CC1` [AZD2281], the “sensitivity to PARP inhibition in clonogenic survival assay” value in the test with CAPAN-1 cells is “showing sensitivity to PARP inhibition”.

Usually Ki stands for the dissociation constant of the complex between target and ligand, obtained from inhibition or displacement.
